Article PMC10747034 (Tropical Medicine and Infectious Disease, 2023)

Key:
[1] = test system: Toxoplasma gondii tachyzoites of RH strain; experiment: Forty-eight-hour antiproliferative assay; assay type: cell-based; conditions: 1 µM, 48 h
Description: NDHF cell monolayers were plated in a 24-well tissue plate containing coverslips, and after confluency was reached, cells were infected with a ratio of 5:1 parasite/host cells with freshly egressed RH strain tachyzoites for two hours. Then, cells were washed twice with phosphate-buffered saline, pH 7.4 (PBS), to remove non-invaded parasites and incubated with a complete medium for two hours more. After this time, infected cells were treated for 48 h with different concentrations of selected compounds, based on the IC50 obtained through plaque assay. At the end of the experiment, the cells were washed with PBS, stained with Bouin for 10 min, washed with 70% alcohol, and stained with solutions 2 and 3 of the Fast Panoptic kit for 60 and 10 s, respectively. Two hundred infected cells were quantified per slide using the 100× objective of a Leica DM500 optical microscope, stratifying the number of infected and non-infected cells and the amount of tachyzoite in each infected cell. The proliferation index is the ratio of the product of the total amount of tachyzoites and the percentage of infected cells by the total number of cells.

[2] = test system: NHDF cells; experiment: Cytotoxicity assay (MTS, 7 days); assay type: cell-based, Human; conditions: MTS, ND = 100% viability up to 10 µM, read-out: Cytotoxicity against NHDF (7 Days) CC50
Description: For that, 96-well tissue plates containing NHDF cells were treated with different concentrations of compounds up to 10 µM for seven days. Control cells were incubated with 0.5% DMSO. At the end of the treatment, cell viability was then analyzed through the colorimetric method of MTS (Promega, Madison, WI, USA). […] Data were analyzed using GraphPad Prim 8.0 software. IC50 and CC50 calculations were performed by fitting the values of proliferation/viability in percentage to a non-linear curve followed by dose–response inhibition analysis through log(inhibitor) vs. normalized response.

[3] = test system: T. gondii tachyzoites; experiment: Ultrastructural analysis through transmission electron microscopy; assay type: cell-based, Toxoplasma gondii; conditions: 1 µM, 48 h
Description: T-25 cm^2 flasks for cell culture with confluent monolayers of NHDF were infected with freshly egressed tachyzoite in a ratio of 10:1 parasite per cell for 2 h of interaction. The flasks were washed and fresh RPMI was added for another two hours. After this, the compounds were added and infected cells were treated for 48 h. The sample fixation and processing for microscopy were performed as previously described.

[4] = test system: Toxoplasma gondii tachyzoites of RH strain; experiment: Plaque assay (7 days) in NHDF monolayers infected with T. gondii; assay type: cell-based; conditions: 7 days of treatment, two independent experiments
Description: After NHDF reached confluency, each well was replaced with fresh medium containing one compound at a concentration of 1 µM, and then infected with 1000 newly egressed tachyzoites from RH strain [29]. Screening at 1 μM is recommended by MMV. As a control, infected cells were incubated with complete medium and 0.01% DMSO [29]. The plates were then kept in an incubator at 37 °C in a humid atmosphere with 5% CO2 for seven days. After this time, cultures were fixed with 70% ethanol and stained with crystal violet to observe the plates.
For that, 12-well plates containing a monolayer of NHDF were infected with 600 tachyzoites of the RH strain of T. gondii and treated with different concentrations for seven days. IC50s of compounds were calculated using GraphPad Prism 8.0 software.
Data were analyzed using GraphPad Prim 8.0 software. IC50 and CC50 calculations were performed by fitting the values of proliferation/viability in percentage to a non-linear curve followed by dose–response inhibition analysis through log(inhibitor) vs. normalized response.

[5] = test system: Madurella mycetomatis; set-up: method as in PMID 35120131; conditions: read-out: IC50 against Madurella mycetomatis; cited from earlier work

Clc1cc(Cl)c2c(c1)CCc1ccccc1C2n1ccnc1 (centres unmarked) [Eberconazole]
Inhibition of parasite proliferation [1]: more than 60% | CC50 [2]: > 10000 nM | Ultrastructural alterations on tachyzoites (TEM) [3]: induced mitochondrial swelling (white arrowhead) and extensive vacuolization | IC50 [4]: 724 ± 12.6 nM | IC50 [5]: 720 nM
